The results in this text go back to ChEMBL document CHEMBL2069252, “Pyrazole diaminopyrimidines as dual inhibitors of KDR and Aurora B kinases” (Bioorg Med Chem Lett, 2012).

Active and inactive are the calls of the source. The calls are words filed in the database; no cut-off is given here. Bounds are passed on as bounds.

For data set [1], the target named is Platelet-derived growth factor receptor alpha (Homo sapiens, UniProt P16234). The data set is described as follows: Inhibition of PDGFRalpha by TR-FRET analysis. For orientation: Time-resolved FRET reads energy transfer from a long-lived donor to a nearby acceptor.
Chain of Platelet-derived growth factor receptor alpha (P16234 whole entry): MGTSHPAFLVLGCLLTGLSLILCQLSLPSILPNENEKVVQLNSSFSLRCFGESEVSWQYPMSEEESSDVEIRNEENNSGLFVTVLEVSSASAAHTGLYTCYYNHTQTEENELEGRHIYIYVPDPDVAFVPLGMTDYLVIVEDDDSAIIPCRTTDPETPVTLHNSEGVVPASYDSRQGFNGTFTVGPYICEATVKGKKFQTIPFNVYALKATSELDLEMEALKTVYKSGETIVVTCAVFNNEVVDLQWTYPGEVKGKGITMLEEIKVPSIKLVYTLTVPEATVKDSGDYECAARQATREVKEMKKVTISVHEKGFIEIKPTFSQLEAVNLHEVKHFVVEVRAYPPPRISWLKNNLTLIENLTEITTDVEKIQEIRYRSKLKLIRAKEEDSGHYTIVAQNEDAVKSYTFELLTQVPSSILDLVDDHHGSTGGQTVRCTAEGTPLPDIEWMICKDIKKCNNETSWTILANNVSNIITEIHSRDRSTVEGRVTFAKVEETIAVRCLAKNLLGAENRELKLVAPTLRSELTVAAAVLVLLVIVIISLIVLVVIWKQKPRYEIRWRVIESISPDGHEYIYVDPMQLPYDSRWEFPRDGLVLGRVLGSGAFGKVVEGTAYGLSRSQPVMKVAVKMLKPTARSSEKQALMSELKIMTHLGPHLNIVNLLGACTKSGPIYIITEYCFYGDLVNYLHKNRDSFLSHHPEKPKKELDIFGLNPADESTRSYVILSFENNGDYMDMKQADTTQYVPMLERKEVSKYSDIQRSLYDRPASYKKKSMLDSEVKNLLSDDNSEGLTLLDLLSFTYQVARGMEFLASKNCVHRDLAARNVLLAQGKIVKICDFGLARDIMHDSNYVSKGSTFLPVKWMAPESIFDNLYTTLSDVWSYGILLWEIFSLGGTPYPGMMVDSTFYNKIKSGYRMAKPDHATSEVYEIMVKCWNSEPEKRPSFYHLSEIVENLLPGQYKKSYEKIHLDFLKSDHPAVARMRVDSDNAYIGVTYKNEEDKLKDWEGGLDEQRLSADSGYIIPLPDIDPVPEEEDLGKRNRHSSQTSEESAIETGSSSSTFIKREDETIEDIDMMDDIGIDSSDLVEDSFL
The target of data set [2] is Wee1-like protein kinase (Homo sapiens, UniProt P30291). The data set is described as follows: Inhibition of Wee1 by TR-FRET analysis.
Chain of Wee1-like protein kinase (P30291 whole entry): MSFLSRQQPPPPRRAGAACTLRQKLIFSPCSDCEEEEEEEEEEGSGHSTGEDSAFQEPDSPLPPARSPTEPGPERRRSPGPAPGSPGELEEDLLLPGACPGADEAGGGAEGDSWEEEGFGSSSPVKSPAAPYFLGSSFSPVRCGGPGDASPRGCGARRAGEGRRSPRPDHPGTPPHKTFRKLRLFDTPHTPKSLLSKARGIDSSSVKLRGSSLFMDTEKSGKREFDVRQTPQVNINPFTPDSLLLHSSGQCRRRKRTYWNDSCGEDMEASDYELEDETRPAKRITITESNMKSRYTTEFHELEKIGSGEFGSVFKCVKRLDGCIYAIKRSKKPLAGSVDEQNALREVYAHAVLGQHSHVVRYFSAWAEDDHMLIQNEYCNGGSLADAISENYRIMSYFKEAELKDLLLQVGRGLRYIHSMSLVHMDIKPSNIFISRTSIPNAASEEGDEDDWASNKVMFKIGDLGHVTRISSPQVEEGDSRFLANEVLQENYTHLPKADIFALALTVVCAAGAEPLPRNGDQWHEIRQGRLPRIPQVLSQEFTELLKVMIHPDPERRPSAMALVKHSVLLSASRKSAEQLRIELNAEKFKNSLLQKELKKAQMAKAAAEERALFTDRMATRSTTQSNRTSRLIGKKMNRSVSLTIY
For data set [3], the system named is NCI-H1299. Put plainly: Cell cycle arrest in human NCI-H1299 cells assessed as induction of polyploidy after 48 hrs by Hoechst staining-based fluorescence microscopic analysis. Conditions: NCI-H1299, 48 h. In kind it is functional.
The target of data set [4] is Glycogen synthase kinase-3 beta (Homo sapiens, UniProt P49841). Put plainly: Inhibition of GSK3beta by TR-FRET analysis.
Chain of Glycogen synthase kinase-3 beta (P49841 whole entry): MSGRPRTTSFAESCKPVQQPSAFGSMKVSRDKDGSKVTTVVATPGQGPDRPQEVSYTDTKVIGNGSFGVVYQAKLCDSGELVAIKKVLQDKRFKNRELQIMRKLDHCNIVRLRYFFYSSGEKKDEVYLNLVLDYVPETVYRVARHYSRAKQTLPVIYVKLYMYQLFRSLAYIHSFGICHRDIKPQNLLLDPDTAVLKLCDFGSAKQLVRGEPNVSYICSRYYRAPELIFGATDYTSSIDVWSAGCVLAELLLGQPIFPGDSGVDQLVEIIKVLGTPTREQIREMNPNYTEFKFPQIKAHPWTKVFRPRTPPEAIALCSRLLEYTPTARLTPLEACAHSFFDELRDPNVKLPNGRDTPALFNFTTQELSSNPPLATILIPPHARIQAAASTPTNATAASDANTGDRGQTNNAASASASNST
Data set [5] relates to Mus musculus. Put plainly: Toxicity in mouse xenografted with human DOHH2 cells assessed as mortality at 10 mg/kg, ip administered Q7d for 3 weeks. The following applies: in vivo, 504 h. Background: A xenograft is tissue or cells of one species grown in another, often human tumour cells in immunodeficient mice.
Data set [6] has as its target T1, Protein kinase C epsilon type (Homo sapiens, UniProt Q02156).
T1 sequence (Q02156 whole entry): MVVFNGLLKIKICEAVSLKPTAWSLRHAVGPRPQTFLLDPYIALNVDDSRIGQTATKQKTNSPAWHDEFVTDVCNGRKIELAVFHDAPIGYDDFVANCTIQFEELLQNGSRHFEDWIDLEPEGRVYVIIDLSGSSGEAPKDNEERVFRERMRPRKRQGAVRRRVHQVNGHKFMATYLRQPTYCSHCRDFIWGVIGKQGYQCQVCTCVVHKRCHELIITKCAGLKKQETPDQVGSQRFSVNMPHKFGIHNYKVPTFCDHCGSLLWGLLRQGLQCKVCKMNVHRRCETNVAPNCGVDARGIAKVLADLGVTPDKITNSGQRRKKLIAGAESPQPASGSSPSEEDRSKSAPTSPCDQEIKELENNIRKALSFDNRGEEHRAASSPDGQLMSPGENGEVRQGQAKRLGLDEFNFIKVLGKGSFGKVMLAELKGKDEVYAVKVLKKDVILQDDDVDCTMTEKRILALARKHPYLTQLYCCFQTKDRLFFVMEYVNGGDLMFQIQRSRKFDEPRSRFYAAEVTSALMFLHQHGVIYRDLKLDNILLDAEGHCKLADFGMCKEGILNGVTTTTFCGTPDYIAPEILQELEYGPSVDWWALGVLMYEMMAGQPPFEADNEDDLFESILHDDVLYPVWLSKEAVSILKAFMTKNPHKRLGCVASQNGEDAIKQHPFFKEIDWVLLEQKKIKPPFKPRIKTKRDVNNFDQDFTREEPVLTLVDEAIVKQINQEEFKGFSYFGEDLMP
Put plainly: Inhibition of PKCepsilon by TR-FRET analysis.

Data set [7] addresses Fibroblast growth factor receptor 2 (Homo sapiens, UniProt P21802). The data set is described as follows: Inhibition of FGFR2 by TR-FRET analysis.
Data set [8] concerns the target T2, Receptor-type tyrosine-protein kinase FLT3 (Homo sapiens, UniProt P36888).
T2 sequence (P36888 whole entry): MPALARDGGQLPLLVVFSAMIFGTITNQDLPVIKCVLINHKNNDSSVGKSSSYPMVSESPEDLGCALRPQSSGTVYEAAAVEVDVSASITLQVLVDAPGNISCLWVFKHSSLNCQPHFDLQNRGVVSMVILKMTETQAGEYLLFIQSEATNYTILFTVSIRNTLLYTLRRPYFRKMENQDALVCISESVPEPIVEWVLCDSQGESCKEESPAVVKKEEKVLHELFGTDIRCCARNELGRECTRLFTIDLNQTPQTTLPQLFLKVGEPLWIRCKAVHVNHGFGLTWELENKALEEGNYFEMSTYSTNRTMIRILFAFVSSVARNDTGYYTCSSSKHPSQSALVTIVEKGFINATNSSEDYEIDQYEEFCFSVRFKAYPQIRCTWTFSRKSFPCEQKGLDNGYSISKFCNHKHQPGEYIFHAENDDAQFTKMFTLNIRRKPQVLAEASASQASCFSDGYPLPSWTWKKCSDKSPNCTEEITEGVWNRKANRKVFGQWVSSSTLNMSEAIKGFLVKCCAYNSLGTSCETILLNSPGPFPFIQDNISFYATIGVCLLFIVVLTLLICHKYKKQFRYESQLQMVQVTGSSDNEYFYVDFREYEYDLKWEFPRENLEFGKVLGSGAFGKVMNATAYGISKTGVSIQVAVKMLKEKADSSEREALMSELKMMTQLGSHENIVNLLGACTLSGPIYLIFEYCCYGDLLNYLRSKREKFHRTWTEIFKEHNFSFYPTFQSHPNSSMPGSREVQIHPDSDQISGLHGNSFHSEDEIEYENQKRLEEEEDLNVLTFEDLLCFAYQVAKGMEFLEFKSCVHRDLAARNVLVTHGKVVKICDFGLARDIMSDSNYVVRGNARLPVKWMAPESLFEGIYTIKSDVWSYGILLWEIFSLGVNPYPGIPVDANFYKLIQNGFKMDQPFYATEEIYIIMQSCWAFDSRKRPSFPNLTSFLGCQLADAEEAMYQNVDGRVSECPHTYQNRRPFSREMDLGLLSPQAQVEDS
Put plainly: Inhibition of Flt3 by TR-FRET analysis.

The test system of data set [9] is Mus musculus. Put plainly: Toxicity in mouse xenografted with human DOHH2 cells assessed as weight loss at 10 mg/kg, ip administered Q7d for 3 weeks. The following applies: in vivo, 504 h.
The subject of data set [10] is DOHH-2. The following applies: Homo sapiens.
Description: Antitumor activity against human DOHH2 cells xenografted in mouse tumor model assessed as tumor growth inhibition at 10 mg/kg, ip administered Q7d for 3 weeks
Data set [11] has as its target T3, Aurora kinase A (Homo sapiens, UniProt O14965).
T3 sequence (O14965 whole entry): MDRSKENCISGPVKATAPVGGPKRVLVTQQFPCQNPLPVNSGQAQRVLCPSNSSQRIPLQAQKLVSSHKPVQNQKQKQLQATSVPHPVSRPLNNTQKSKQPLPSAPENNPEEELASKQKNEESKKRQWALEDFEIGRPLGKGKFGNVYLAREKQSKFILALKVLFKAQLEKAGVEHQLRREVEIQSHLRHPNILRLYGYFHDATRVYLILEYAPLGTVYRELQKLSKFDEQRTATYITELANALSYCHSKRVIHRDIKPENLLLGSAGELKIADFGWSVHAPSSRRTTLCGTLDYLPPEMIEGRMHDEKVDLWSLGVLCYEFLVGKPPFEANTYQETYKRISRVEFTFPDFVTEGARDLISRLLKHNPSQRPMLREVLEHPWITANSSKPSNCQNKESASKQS
Put plainly: Inhibition of Aurora A by TR-FRET analysis.

Chain of Fibroblast growth factor receptor 2 (P21802 whole entry): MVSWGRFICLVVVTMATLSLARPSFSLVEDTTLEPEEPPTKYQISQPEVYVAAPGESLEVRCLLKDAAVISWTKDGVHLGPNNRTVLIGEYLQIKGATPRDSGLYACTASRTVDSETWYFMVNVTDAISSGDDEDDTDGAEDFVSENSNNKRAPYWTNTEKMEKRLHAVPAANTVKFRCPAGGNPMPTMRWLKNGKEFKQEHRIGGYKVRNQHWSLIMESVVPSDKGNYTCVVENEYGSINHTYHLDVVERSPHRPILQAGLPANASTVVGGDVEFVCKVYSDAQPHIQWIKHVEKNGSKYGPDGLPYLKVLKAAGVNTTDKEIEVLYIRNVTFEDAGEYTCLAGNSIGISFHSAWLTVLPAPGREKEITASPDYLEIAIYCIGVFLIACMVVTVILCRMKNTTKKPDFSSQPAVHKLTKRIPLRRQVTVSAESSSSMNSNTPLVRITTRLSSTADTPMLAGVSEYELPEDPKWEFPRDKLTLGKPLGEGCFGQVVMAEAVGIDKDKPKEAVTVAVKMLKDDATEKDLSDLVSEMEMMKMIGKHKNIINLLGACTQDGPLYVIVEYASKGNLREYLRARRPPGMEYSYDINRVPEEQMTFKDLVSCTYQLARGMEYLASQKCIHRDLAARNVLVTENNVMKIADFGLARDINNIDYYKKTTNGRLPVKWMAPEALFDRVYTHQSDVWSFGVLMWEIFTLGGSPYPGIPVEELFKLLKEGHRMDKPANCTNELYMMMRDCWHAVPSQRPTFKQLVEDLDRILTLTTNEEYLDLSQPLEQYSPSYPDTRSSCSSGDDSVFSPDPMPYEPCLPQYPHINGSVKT

For the compound `Cn1cc(Nc2ncc(Br)c(N[C@H]3[C@@H](C(N)=O)[C@@H]4C=C[C@H]3C4)n2)cn1`, the IC50 in data set [1] stood at 1 nM; in data set [2], 2800 nM; in [4] it was 34 nM; in data set [6] it was 82 nM; in data set [7], 2 nM; in data set [8], 1 nM. In data set [11], this compound came in with a concentration for half-maximal inhibition (IC50) of 3 nM. Further, the EC15 in [3] is under 3 nM. In addition, the Activity entry in data set [5] and in data set [9] was “Toxic” throughout. Also, the TGI entry in data set [10] is “Active”.

Usually IC50 stands for the concentration needed to halve the response being measured.
